In US8697662B2, “Methods for treating Kaposi sarcoma” (PTC Therapeutics, Inc., priority 2009, dated 2014):
Marks after values point to notes of the source that are not given here.

How the values were obtained:
LNCaP xenografts = assay: Tumor growth inhibition in LNCaP prostate cancer xenografts; type: in vivo, athymic nude mice
Procedure: Experimental Design. The LNCaP cell line is derived from a lymph node metastasis.
Tumor size was measured by calipers at periodic intervals during the study. When the mean tumor size in a mouse exceeded 1500 mm^3, mice in that group were sacrificed and both tumor and plasma were assayed for pathologic VEGF concentration as described in Section 9.1.1.1.

HT1080 xenografts = assay: BrdU labeling of tumor cells from HT1080 xenografts in vivo; set-up: species or system athymic nude mice; conditions: HT1080 xenografts, 1, 2, or 3 days of treatment
Procedure: Experimental Design. HT1080 cells (5×10^6 cells/mouse) were implanted subcutaneously in male athymic nude mice.
The mice were sacrificed 3 hours later, and the tumors collected. A single cell suspension was prepared from the tumor cells. The cells were permeabilized and an antibody to BrdU was used to stain cells that had entered S phase during the labeling period. The proportion of cells actively synthesizing DNA was determined by cell sorting.

[1] = ECG and blood pressure assessments in 7-day and 28-day dog toxicity studies; type: in vivo, beagle dogs
[2] = Respiratory safety pharmacology study in awake telemeterized dogs; type: in vivo, beagle dogs; conditions: single oral doses of 30, 60, and 120 mg/kg, male dogs
[3] = Oral pharmacokinetics in mice; type: in vivo
Procedure: (§1) The pharmacokinetic evaluations in mice were adjuncts to the primary pharmacodynamic xenograft studies. The evaluations in rats included toxicokinetic assessments in single-dose, 7-day, and 28-day toxicology studies as well as a mass-balance study after a single oral dose of ^14C-Compound #10. The evaluations in dogs included toxicokinetic assessments in 7-day and 28-day toxicology studies. In the studies performed, rodents were dosed once daily with Compound #10 formulated in vehicle and administered via oral gavage.

[4] = Oral toxicokinetics in dogs; type: in vivo, beagle dogs
Procedure: as §1

CYP2D6 = target: T1, CYP2D6 (Homo sapiens, UniProt P10635); assay: CYP inhibition in human hepatic microsomes or recombinant isoenzymes: CYP2D6; type: in vitro ADME
T1 construct: host or cells: human hepatic microsomes or human recombinant isoenzymes
T1 sequence (P10635 whole entry): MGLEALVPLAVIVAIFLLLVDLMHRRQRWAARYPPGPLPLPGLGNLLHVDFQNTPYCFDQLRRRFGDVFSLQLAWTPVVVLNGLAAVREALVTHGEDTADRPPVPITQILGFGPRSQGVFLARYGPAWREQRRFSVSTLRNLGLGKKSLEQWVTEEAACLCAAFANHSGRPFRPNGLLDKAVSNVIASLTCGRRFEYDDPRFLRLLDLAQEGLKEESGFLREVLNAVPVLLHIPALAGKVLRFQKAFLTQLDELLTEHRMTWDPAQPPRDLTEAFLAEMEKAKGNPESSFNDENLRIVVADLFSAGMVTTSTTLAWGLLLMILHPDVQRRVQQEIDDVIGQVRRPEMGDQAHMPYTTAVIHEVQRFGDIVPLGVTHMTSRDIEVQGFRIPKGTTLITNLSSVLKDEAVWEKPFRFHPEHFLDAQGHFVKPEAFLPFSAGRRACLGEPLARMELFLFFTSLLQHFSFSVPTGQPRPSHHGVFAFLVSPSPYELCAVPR
Source text: It is possible that in certain clinical trial subjects, such agents may need to be adjusted for dosing or replaced by alternative agents that are not metabolized by CYP2D6, particularly when such agents may have a low therapeutic index.

[5] = Phase 1 escalating multiple-dose study in healthy volunteers: safety and tolerability; type: in vivo; conditions: through the highest dose level tested ([…] TID)
Procedure: The study was performed under the oversight of the French health authorities. The study was not performed under an IND.
Methods. The trial was a Phase 1, randomized, escalating multiple dose, single center study conducted in 2 stages.

Structure (SMILES): COc1ccc(C2c3[nH]c4ccc(Cl)cc4c3CCN2C(=O)Oc2ccc(Cl)cc2)cc1 (racemic) [Compound #10]
- time to tumor progression (time to reach ≧1000 mm^3) (in words) (LNCaP xenografts; 10 mg/kg M-W-F): prolonged
- intratumoral VEGF concentrations adjusted for tumor size (in words) (LNCaP xenografts; 10 mg/kg M-W-F, day of sacrifice): reduced
- Mean % Inhibition of Intratumoral VEGF vs Vehicle at Sacrifice (LNCaP xenografts; LNCaP xenografts in male nude mice, 10 mg/kg oral M-W-F, adjusted for tumor size): 51^d %
- BrdU staining of tumor cells (fraction in S phase) (in words) (HT1080 xenografts): increased BrdU staining
- QTc values ([1]; males, 60 mg/kg/day, 28-day study): comparable to controls
- ECG or blood pressure results ([1]; through 120 mg/kg/day for 7-days and through 60 mg/kg/day for 28-days, oral): did not have any toxicological effects
- respiratory rate, core body temperature, arterial blood gases, arterial pH, arterial bicarbonate [2]: no dose dependent or biologically significant changes
- oral bioavailability (in words) [3]: orally bioavailable
- relationship between dose and plasma exposure (in words) ([3]; oral): bell-shaped curve
- oral bioavailability (in words) [4]: orally bioavailable
- relationship between dose and plasma exposure (in words) ([4]; oral): bell-shaped curve
- inhibition of CYP2D6 isoenzyme (in words) (CYP2D6): inhibits the activity
- dose limiting toxicities [5]: no dose limiting toxicities were observed
